Results reported in ChEMBL document CHEMBL5226341, “Discovery of a Potent FLT3 Inhibitor (LT-850-166) with the Capacity of Overcoming a Variety of FLT3 Mutations” (J Med Chem, 2021).

Key:
[1] = biological target: Receptor-type tyrosine-protein kinase FLT3 (Homo sapiens, UniProt P36888, ITD); test: Inhibition of human FLT3-ITD mutant preincubated with enzyme for 20 mins followed by [gamma-33P]ATP addition and measured after 120 mins by filter binding method
MV4-11 [2] = test: Antiproliferative activity against human MV4-11 cells assessed as inhibition of cell growth incubated for 72 hrs by CellTiterGlo luminescent assay; format: functional, cell-based; details: MV4-11, 72 h
BaF3 [3] = test: Antiproliferative activity against mouse BaF3 cells harboring FLT3-ITD-F691L mutant assessed as residual cell viability at 0.1 uM incubated for 72 hrs by CellTiterGlo luminescent assay; format: functional
BaF3 [4] = test: Antiproliferative activity against mouse BaF3 cells harboring FLT3-ITD-F691L mutant assessed as residual cell viability at 10 nM incubated for 72 hrs by CellTiterGlo luminescent assay; format: functional
BaF3 [5] = test: Antiproliferative activity against mouse BaF3 cells harboring FLT3-ITD-F691L mutant assessed as residual cell viability at 50 nM incubated for 72 hrs by CellTiterGlo luminescent assay; format: functional
BaF3 [6] = test: Antiproliferative activity against mouse BaF3 cells harboring FLT3-ITD-F691L mutant assessed as reduction in cell viability incubated for 72 hrs by CellTiterGlo luminescent assay; format: functional, cell-based; details: BaF3, 72 h
[7] = Antiproliferative activity against mouse BaF3 cells assessed as reduction in cell viability measured after 72 hrs by CellTiterGlo luminescent assay; format: toxicity, cell-based
BaF3 [8] = test: Antiproliferative activity against mouse BaF3 cells harboring FLT3-ITD mutant assessed as reduction in cell viability measured after 72 hrs by CellTiterGlo luminescent assay; format: functional, cell-based; details: BaF3, 72 h
BaF3 [9] = format: functional, cell-based; details: Mus musculus, BaF3, 72 h
BaF3 [10] = test: Antiproliferative activity against mouse BaF3 cells harboring FLT3-ITD-Y842H mutant assessed as reduction in cell viability measured after 72 hrs by CellTiterGlo luminescent assay; format: functional, cell-based; details: BaF3, 72 h
BaF3 [11] = test: Antiproliferative activity against mouse BaF3 cells harboring FLT3-ITD-N676D mutant assessed as reduction in cell viability measured after 72 hrs by CellTiterGlo luminescent assay; format: functional, cell-based; details: BaF3, 72 h
BaF3 [12] = test: cells; details: Mus musculus, BaF3, 72 h
Description: Antiproliferative activity against mouse BaF3 cells harboring FLT3-ITD-D835V mutant assessed as reduction in cell viability measured after 72 hrs by CellTiterGlo luminescent assay

MV4-11 [13] = test: Antitumor activity against human MV4-11 cells xenografted in BALB/c mouse assessed as tumor growth inhibition at 30 mg/kg, iv QD for 21 days by vernier caliper analysis; format: functional; details: MV4-11, 504 h, time 21 day, read-out: TGI
MV4-11 [14] = test: Antitumor activity against human MV4-11 cells xenografted in BALB/c mouse assessed as inhibition rate of tumor weight at 30 mg/kg, iv QD for 21 days by vernier caliper analysis; format: functional; details: MV4-11, 504 h, time 21 day
[15] = Toxicity in BALB/c mouse xenografted with human MV4-11 cells assessed as mortality at 30 mg/kg, iv QD for 10 days; format: organism-based; details: in vivo, 240 h, time 10 day

Chain of Receptor-type tyrosine-protein kinase FLT3 (P36888 whole entry, looked up, stated change not applied): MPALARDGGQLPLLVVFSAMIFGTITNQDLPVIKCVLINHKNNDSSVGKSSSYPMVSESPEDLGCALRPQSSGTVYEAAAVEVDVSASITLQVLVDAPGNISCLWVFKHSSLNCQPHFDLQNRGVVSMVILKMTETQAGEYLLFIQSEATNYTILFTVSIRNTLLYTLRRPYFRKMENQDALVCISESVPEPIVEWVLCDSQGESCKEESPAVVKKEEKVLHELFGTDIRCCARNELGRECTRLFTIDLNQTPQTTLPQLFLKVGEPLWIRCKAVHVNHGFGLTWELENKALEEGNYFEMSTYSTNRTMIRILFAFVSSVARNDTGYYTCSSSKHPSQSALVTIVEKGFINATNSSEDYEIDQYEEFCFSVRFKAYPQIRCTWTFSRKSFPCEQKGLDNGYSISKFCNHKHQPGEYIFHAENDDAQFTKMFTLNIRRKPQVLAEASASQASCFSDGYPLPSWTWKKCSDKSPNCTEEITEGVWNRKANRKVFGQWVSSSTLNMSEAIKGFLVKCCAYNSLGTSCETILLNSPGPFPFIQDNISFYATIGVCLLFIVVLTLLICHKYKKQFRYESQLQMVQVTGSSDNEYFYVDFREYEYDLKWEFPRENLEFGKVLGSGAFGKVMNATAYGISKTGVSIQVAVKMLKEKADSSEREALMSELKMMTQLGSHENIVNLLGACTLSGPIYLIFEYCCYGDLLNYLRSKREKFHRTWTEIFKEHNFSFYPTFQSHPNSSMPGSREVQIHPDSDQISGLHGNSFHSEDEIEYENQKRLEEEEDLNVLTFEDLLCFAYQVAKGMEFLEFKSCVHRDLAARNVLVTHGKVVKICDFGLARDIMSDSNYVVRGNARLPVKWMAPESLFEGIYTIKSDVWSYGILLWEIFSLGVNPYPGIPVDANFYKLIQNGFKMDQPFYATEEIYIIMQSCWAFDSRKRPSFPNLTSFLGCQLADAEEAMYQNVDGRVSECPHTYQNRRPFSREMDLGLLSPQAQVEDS

Compound	IC50 [1] [nM]	IC50 (MV4-11 [2]) [nM]	Activity (BaF3 [3]) [%]	Activity (BaF3 [4]) [%]	other results
COc1ccccc1Cn1cnc2ccc(-c3cc(NC(=O)c4ccc(NC5CCN(C)CC5)cc4)n[nH]3)cc21	0.7	33.6	85.88		
O=C(Nc1cc(-c2ccc3ncn(Cc4c(Cl)cccc4Cl)c3c2)[nH]n1)c1ccc(N2CC3CC2CO3)cc1 (stereo not given)		2.88		88.75	
O=C(Nc1cc(-c2ccc3ncn(Cc4c(Cl)cccc4Cl)c3c2)[nH]n1)c1ccc(N2CCOCC2)cc1		3.61		109.68	
CN1CCC(Nc2ccc(C(=O)Nc3cc(-c4cccc5c4ncn5C)[nH]n3)cc2)CC1	23.7				
O=C(Nc1cc(-c2ccc3ncn(Cc4ccccc4)c3c2)[nH]n1)c1ccccc1	12.9	219			
CN1CCC(Nc2ccc(C(=O)Nc3cc(-c4ccc5ncn(-c6ccccc6)c5c4)[nH]n3)cc2)CC1	4.96				
CN1CCC(Nc2ccc(C(=O)Nc3cc(-c4ccc5c(c4)ncn5Cc4ccccc4)[nH]n3)cc2)CC1	4.96	58.4			
CN1CCC(Nc2ccc(C(=O)Nc3cc(-c4ccc5ncccc5c4)[nH]n3)cc2)CC1	10.3				
CN1CCC(Nc2ccc(C(=O)Nc3cc(-c4ccc5ncn(Cc6ccccc6)c5c4)[nH]n3)cc2)CC1	1.84		96.22		
CN1CCC(Nc2ccc(C(=O)Nc3cc(-c4ccc5ncn(C)c5c4)[nH]n3)cc2)CC1	7.59				
CN1CCC(Nc2ccc(C(=O)Nc3cc(-c4ccc5ncn(C6CCCC6)c5c4)[nH]n3)cc2)CC1	1.14	68.2	97.57		
CN1CCC(Nc2ccc(C(=O)Nc3cc(-c4ccc5ncn(Cc6c(Cl)cccc6Cl)c5c4)[nH]n3)cc2)CC1		0.77		104.29	
CN1CCC(Nc2ccc(C(=O)Nc3cc(-c4ccc5ncn(Cc6ccccc6)c5c4)[nH]n3)c(F)c2)CC1	11.1	99.3			
CN1CCC(Nc2ccc(C(=O)Nc3cc(-c4ccc5ncn(Cc6ccc(F)cc6)c5c4)[nH]n3)cc2)CC1	4.58	23.6	100.93		
CC(C)n1cnc2ccc(-c3cc(NC(=O)c4ccc(NC5CCN(C)CC5)cc4)n[nH]3)cc21	7.65				
CCN1CCN(c2ccc(C(=O)Nc3cc(-c4ccc5ncn(Cc6cc(F)ccc6Cl)c5c4)[nH]n3)cc2)CC1		12.6		107.7	Activity (BaF3 [5]): 49.36%
CCN1CCN(c2ccc(C(=O)Nc3cc(-c4ccc5ncn(Cc6c(C)cccc6C)c5c4)[nH]n3)cc2)CC1		4.85		103.84	Activity (BaF3 [5]): 4.57%
O=C(Nc1cc(-c2ccc3ncn(Cc4ccccc4Cl)c3c2)[nH]n1)c1ccc(N2CCOCC2)cc1		9.02	16.59		IC50 (BaF3 [6]): 65.2 nM
Cc1ccccc1Cn1cnc2ccc(-c3cc(NC(=O)c4ccc(NC5CCN(C)CC5)cc4)n[nH]3)cc21	0.94	29.7	86.49		
CN1CCC(C(=O)Nc2cc(-c3ccc4ncn(Cc5ccccc5)c4c3)[nH]n2)CC1	397	1700			
CN1CCC(Nc2ccc(C(=O)Nc3cc(-c4ccc5ncn(C6CCOCC6)c5c4)[nH]n3)cc2)CC1	5.73				
CN(C)CCNc1ccc(C(=O)Nc2cc(-c3ccc4ncn(Cc5c(Cl)cccc5Cl)c4c3)[nH]n2)cc1		3.14		101.71	
CCN1CCN(c2ccc(C(=O)Nc3cc(-c4ccc5ncn(Cc6cccc(F)c6Cl)c5c4)[nH]n3)cc2)CC1		12.5		101.05	Activity (BaF3 [5]): 47.53%
CN1CCC(Nc2ccc(C(=O)Nc3cc(-c4ccc5ncn(Cc6ccccc6Cl)c5c4)[nH]n3)cc2)CC1	0.85	25.4	40.17		
CCN1CCN(c2ncc(C(=O)Nc3cc(-c4ccc5ncn(Cc6c(Cl)cccc6Cl)c5c4)[nH]n3)cn2)CC1		12.6		111.76	
CCN1CCN(c2ccc(C(=O)Nc3cc(-c4ccc5ncn(Cc6ccccc6Cl)c5c4)[nH]n3)cc2)CC1		12.4	1.72	90.16	Activity (BaF3 [5]): 19.95%; IC50 (BaF3 [6]): 29.2 nM
CCN1CCN(c2ccc(C(=O)Nc3cc(-c4ccc5ncn(Cc6c(Cl)cccc6Cl)c5c4)[nH]n3)cn2)CC1		3.25		102.56	

Compound	IC50 [1] [nM]	IC50 (MV4-11 [2]) [nM]	Activity (BaF3 [3]) [%]	Activity (BaF3 [4]) [%]	other results
CN1CCC(Nc2ccc(C(=O)Nc3cc(-c4cccc5ncn(C)c45)[nH]n3)cc2)CC1	213				
CN1CCN(c2ccc(C(=O)Nc3cc(-c4ccc5ncn(Cc6ccccc6Cl)c5c4)[nH]n3)cc2)CC1		30	20.29		IC50 (BaF3 [6]): 82.8 nM
CN1CCC(Nc2ccc(C(=O)Nc3cc(-c4ccc5ncn([C@H]6CC[C@H](N)CC6)c5c4)[nH]n3)cc2)CC1	3.88				
Cc1cc(C(=O)Nc2cc(-c3ccc4ncn(Cc5ccccc5)c4c3)[nH]n2)ccc1NC1CCN(C)CC1	3.72	48.2	99.36		
CN1CCC(Nc2ccc(C(=O)Nc3cc(-c4ccc5ncn(Cc6ccsc6)c5c4)[nH]n3)cc2)CC1	1.42	55.6	108.58		
Cc1cc(NC2CCN(C)CC2)ccc1C(=O)Nc1cc(-c2ccc3ncn(Cc4ccccc4)c3c2)[nH]n1	9.06	86.2			
CC(=O)N1CCN(c2ccc(C(=O)Nc3cc(-c4ccc5ncn(Cc6c(Cl)cccc6Cl)c5c4)[nH]n3)cc2)CC1		1.1		103.45	
CN1CCC(Nc2ccc(C(=O)Nc3cc(-c4ccc5ncn(Cc6ccccc6F)c5c4)[nH]n3)cc2)CC1	8.34	90.6	99.79		
CN1CCN(Cc2ccc(NC(=O)c3n[nH]cc3Nc3ncnc4[nH]ccc34)cc2)CC1	1.71	6.38			IC50 (BaF3 [6]): 7.65 nM
CN1CCC(Nc2ccc(C(=O)Nc3cc(-c4ccc5ccn(Cc6ccccc6)c5c4)[nH]n3)cc2)CC1	2.06	75.6			
COCCNc1ccc(C(=O)Nc2cc(-c3ccc4ncn(Cc5c(Cl)cccc5Cl)c4c3)[nH]n2)cc1		6.37		84.97	
CN1CCC(Nc2ccc(C(=O)Nc3cc(-c4ccc5ncn(Cc6ccccc6)c5c4)[nH]n3)cc2F)CC1	3.77	32.6	100.57		
CN(C)CCN(C)c1ccc(C(=O)Nc2cc(-c3ccc4ncn(Cc5c(Cl)cccc5Cl)c4c3)[nH]n2)cc1		2.78		102.83	
CN1CCCN(c2ccc(C(=O)Nc3cc(-c4ccc5ncn(Cc6c(Cl)cccc6Cl)c5c4)[nH]n3)cc2)CC1		1.38		107.43	
CN1CCC(Nc2ccc(C(=O)Nc3cc(-c4ccc5ncn(Cc6ccc(Cl)cc6)c5c4)[nH]n3)cc2)CC1	3.59	219	101.73		
O=C(Nc1cc(-c2ccc3ncn(Cc4ccccc4Cl)c3c2)[nH]n1)c1ccc(N2CCNCC2)cc1		13.8	14.55		IC50 (BaF3 [6]): 60.9 nM
CCN1CCN(c2ccc(C(=O)Nc3cc(-c4ccc5ncn(Cc6c(F)cccc6Cl)c5c4)[nH]n3)cc2)CC1		2.61		101.37	Activity (BaF3 [5]): 21.63%
CN1CCC(Nc2ccc(C(=O)Nc3cc(-c4ccc5ncn(CC6CCCCC6)c5c4)[nH]n3)cc2)CC1	3.86				
CN1CCC(Nc2ccc(C(=O)Nc3cc(-c4ccc5ncn(Cc6cccc(Cl)c6)c5c4)[nH]n3)cc2)CC1	0.94	66	100.75		
CN1CCC(Nc2ccc(C(=O)Nc3cc(-c4ccc5nccnc5c4)[nH]n3)cc2)CC1	14.1				
CN1CCC(Nc2ccc(C(=O)Nc3cc(-c4ccc5ncn(C6CC6)c5c4)[nH]n3)cc2)CC1	3.58				
CN1CCN(c2ccc(C(=O)Nc3cc(-c4ccc5ncn(Cc6c(Cl)cccc6Cl)c5c4)[nH]n3)cc2)CC1=O		2.64		104.57	
O=C(Nc1cc(-c2ccc3ncn(Cc4c(Cl)cccc4Cl)c3c2)[nH]n1)c1ccc(N2CC3CC2CN3)cc1 (stereo not given)		2.26		103.48	
CC(C)(C)c1cc(NC(=O)Nc2ccc(-c3cn4c(n3)sc3cc(OCCN5CCOCC5)ccc34)cc2)no1 [QUIZARTINIB]					IC50 (BaF3 [6]): 133 nM; IC50 at 72 h [7]: > 1000 nM; IC50 (BaF3 [8]): 3.52 nM; IC50 (BaF3 [9]): 27.1 nM; IC50 (BaF3 [10]): 15 nM; IC50 (BaF3 [11]): 5.41 nM; IC50 (BaF3 [12]): 49.6 nM
CN1CCC(Nc2ccc(C(=O)Nc3cc(-c4ccc5ncn(Cc6ccncc6)c5c4)[nH]n3)cc2)CC1	16				
Nc1ccn([C@@H]2O[C@H](CO)[C@@H](O)[C@@H]2O)c(=O)n1 [CYTARABINE]					inhibition in vivo at 30 mg/kg (MV4-11 [13]): 66%; inhibition in vivo at 30 mg/kg (MV4-11 [14]): 50.6%; Activity [15]: Toxic
CN1CCC(Nc2ccc(C(=O)Nc3cc(-c4ccc5ncn(Cc6cccc(F)c6)c5c4)[nH]n3)cc2)CC1	3.22	18.5	97.08		
